According to patent US7317003B2, “Small peptides having anti-angiogenic and endothelial cell inhibition activity” (National University of Singapore, priority 1998, dated 2008):
Where a SMILES comes first, the peptide text is derived from it.

Experiments:
[1] = tested on: chick embryo chorioallantoic membrane (CAM); assay: chick embryo chorioallantoic membrane (CAM) in vivo angiogenesis assay; details: for inhibition of chick CAM angiogenesis (in words): peptide on cover slip, compared to PBS control
Protocol: Since peptides Angio-2, Angio-3 and Angio-4 all inhibited BAE cell proliferation, they were also tested in the chick embryo chorioallantoic membrane (CAM) in vivo angiogenesis assay (7). In this assay, the peptides are coated onto 2-3 mm glass squares cut from microscope cover slips. […] Peptide Angio-3 reduced microvessel density at the very low dose of 12 pg/cover slip (the lowest dose tested, comparing to a PBS control). As a positive control, recombinant angiostatin at the dose of 100 ug/cover slip was tested in the same experiment. The amount of inhibition (judging from the extent of reduction in microvessel density) from 100 ug recombinant angiostatin is equivalent to 1.2 ug of Angio-3 peptide.

[2] = tested on: bovine aorta endothelial cell (BAE); format: cell-based; details: 72 h; for inhibition of BAE cell proliferation (in words): bFGF 1 ng/ml
Protocol: The peptides were tested in an in vitro bovine aorta endothelial cell (BAE) proliferation assay for their ability to inhibit BAE cell proliferation. Cells were plated into 24-well culture plates at 1.25×10^4 cells/well in complete SFM-endothelial medium (Gibco, USA). After 24 h, the medium was removed and various amounts of peptides were added into the wells in 0.5 ml of SFM-endothelial medium without bFGF. After 30 minutes incubation, bFGF was added into each well at a final concentration of 1 ng/ml together with another 0.5 ml of SFM-endothelial medium. Seventy-two hours later, cells were trypsinized and counted using a hemocytometer. Commercial E. coli recombinant human angiostatin (1 μM) was used as a control in the experiments.
Peptides were tested in an in vitro bovine aorta endothelial cell (BAE) proliferation assay for their ability to inhibit BAE cell proliferation. Cells were plated into 24-well culture plates at the number of 1.25×10^4/well in complete SFM-endothelial media (Gibco, USA). After 24 hours, the medium was removed and various amounts of peptides were added into the wells in 0.5 ml of SFM-endothelial medium without bFGF. After 30 minutes incubation, bFGF was added into each well at a final concentration of 1 ng/ml together with another 0.5 ml of SFM-endothelial medium. Seventy-two hours later, cells were trypsinized and counted using a hemocytometer. […] The IC50 of the Endo-2, -3 and -4 peptides is estimated to be 0.4 uM, 0.3 uM and 2 uM respectively.

[3] = tested on: BAE cells; assay: BAE cell cytotoxicity by trypan blue staining and cellular morphology; format: cell-based, bovine; details: 20 μM, trypan blue staining and microscopic cellular morphology
Protocol: The IC50 of the three peptides are about 2 mM, 20 nM and 200 uM respectively.

[4] = tested on: Human hepatoma cell line HepG2; details: mouse, in vivo, 15 mg/kg, 12 h
Protocol: Human hepatoma cell line HepG2 was cultured and 1 million cells were injected subcutaneously into the right back of each 6 weeks old BALB/c nude mouse. Visible tumors appear from about 2 weeks after tumor cell injection. Mice with tumors were then randomly grouped and injected with the peptide at 300 μg/mouse every 12 h (16-19 g average weight). […] Tumor sizes were measured with a caliper every three days and volumes calculated using the formula (width)^2×length×0.52. Statistical analyses were done using student t-test using the SigmaStat software (SPSS, USA). Tumors are angiogenesis dependent. To test if peptide angio-3 can inhibit tumor growth in vivo, human hepatoma HepG2 cells were injected subcutaneously into nude mice to induce tumor formation. Tumor nodules appear in about 15-18 days after tumor cell injection. Peptide was then injected at a distant site from the tumor into tumor bearing mice at 15 mg/kg every 12 h for up to a month. […] Experiments were terminated when the control group tumors started to show necrosis.

[5] = tested on: primary tumor growth and metastasis; details: mice; cited from earlier work
[6] = 100 mg/kg/day; cited from earlier work
[7] = tested on: bovine aorta endothelial cell (BAE); details: reported in reference 5; cited from earlier work
[8] = tested on: chick embryo chorioallantoic membrane (CAM); assay: chick embryo chorioallantoic membrane (CAM) in vivo angiogenesis assay; details: 10 day embryo, 12 ug/cover slip

Row | Compound | inhibition of chick CAM angiogenesis (in words) [1] | IC50 [2] [µM] | inhibition of BAE cell proliferation (in words) [2] | other results
1 | hFLT2: small peptide designed from Ig domain 2 of the extracellular region of FLT-1 (SPNITVTLKKFPL; Mammalian; hFLT2) | very potent angiogenesis inhibition activity | – | – | –
2 | hFLT2-7: further N-terminal truncation of hFLT2 (TLKKFPL; Mammalian; hFLT2-7) | non-functional peptide | – | – | –
3 | CC(C)C[C@H](NC(=O)[C@@H]1CCCN1C(=O)[C@@H](NC(=O)[C@H](CC(N)=O)NC(=O)[C@H](CC(C)C)NC(=O)[C@H](C)NC(=O)[C@@H](NC(=O)[C@H](CC(C)C)NC(=O)[C@H](Cc1c[nH]cn1)NC(=O)[C@H](CC(C)C)NC(=O)[C@@H](NC(=O)[C@@H]1CCCN1C(=O)[C@@H](N)CCC(N)=O)C(C)C)C(C)C)[C@@H](C)O)C(=O)O [Endo-2] (H-QPVLHLVALNTPL-OH; N-terminus and C-terminus assumed) | – | ~0.4 | inhibited BAE cell proliferation in a dose-dependent manner | –
4 | CC[C@H](C)[C@H](NC(=O)[C@@H]1CCCN1C(=O)[C@@H](N)C(C)C)C(=O)N[C@H](C(=O)N[C@@H](CC(N)=O)C(=O)N[C@@H](CC(C)C)C(=O)N[C@@H](CCCCN)C(=O)N[C@@H](CC(=O)O)C(=O)N[C@@H](CCC(=O)O)C(=O)N[C@H](C(=O)N[C@@H](CC(C)C)C(=O)N[C@@H](CO)C(=O)N1CCC[C@H]1C(=O)N[C@@H](CO)C(=O)O)C(C)C)C(C)C [Endo-3] (H-VPIVNLKDEVLSPS-OH; N-terminus and C-terminus assumed) | – | ~0.3 | inhibited BAE cell proliferation in a dose-dependent manner | –
5 | C[C@@H](O)[C@H](N)C(=O)N1CCC[C@H]1C(=O)N[C@@H](Cc1c[nH]cn1)C(=O)N[C@H](C(=O)N[C@@H](Cc1c[nH]cn1)C(=O)N[C@@H](CC(N)=O)C(=O)N[C@@H](CCCNC(=N)N)C(=O)N[C@H](C(=O)N1CCC[C@H]1C(=O)N[C@@H](CCC(=O)O)C(=O)O)[C@@H](C)O)[C@@H](C)O [Angio-3] (H-TPHTHNRTPE-OH) | – | ~0.02 | – | cell cytotoxicity with BAE cells [3]: No obvious cell cytotoxicity; inhibition of HepG2 tumor growth [4]: about 40%
6 | hFLT2-5: further N-terminal truncation of hFLT2 (KKFPL; Mammalian; hFLT2-5) | non-functional peptide | – | – | –
7 | Endo-1: endostatin-derived small peptide (SPHNSYIVLPI; Mammalian; Endo-1) | – | – | only a slight inhibition effect at high doses | –
8 | angiostatin | – | – | – | dose at which inhibition of metastasis is observed [5]: about 1 mg/kg/day; dose at which inhibition of primary tumor growth is observed [5]: about 10 mg/kg/day; toxicity in mice [6]: without observable toxicity; reported IC50 range, endothelial cell proliferation [7]: nanomolar range
9 | fVEGF: peptide designed from Zebrafish VEGF (YPDEIEHTYIPS; Mammalian; fVEGF) | dose-dependent inhibition of CAM angiogenesis | – | – | –
10 | mVEGF: peptide designed from mammalian VEGF sequences (YPDEIEYIFKPS; Mammalian; mVEGF) | dose-dependent inhibition of CAM angiogenesis | – | – | inhibition of chick CAM angiogenesis (FIG. 9A-9B) ([1]; 13 day embryo, various doses, 0 and 40 hours incubation): Inhibition of chick CAM angiogenesis
11 | C[C@@H](O)[C@H](N)C(=O)N1CCC[C@H]1C(=O)N[C@@H](Cc1c[nH]cn1)C(=O)N[C@@H](CCCNC(=N)N)C(=O)N[C@@H](Cc1c[nH]cn1)C(=O)N[C@@H](CCC(N)=O)C(=O)N[C@@H](CCCCN)C(=O)N[C@H](C(=O)N1CCC[C@H]1C(=O)N[C@@H](CCC(=O)O)C(=O)O)[C@@H](C)O [Angio-4] (H-TPHRHQKTPE-OH; N-terminus and C-terminus assumed) | inhibited chick CAM angiogenesis | ~200 | inhibited BAE cell proliferation in a dose-dependent manner | inhibition of chick CAM angiogenesis (FIG. 3, 4) ([1]; 4 day embryo, 120 ug/cover slip): Inhibition of chick CAM angiogenesis
12 | CC(C)[C@H](NC(=O)[C@H](CO)NC(=O)[C@H](CCCCN)NC(=O)[C@H](CCC(N)=O)NC(=O)[C@@H]1CCCN1C(=O)[C@H](Cc1c[nH]c2ccccc12)NC(=O)[C@H](C)NC(=O)[C@@H]1CCCN1C(=O)[C@@H](N)Cc1c[nH]cn1)C(=O)N[C@@H](Cc1c[nH]c2ccccc12)C(=O)N[C@@H](Cc1c[nH]cn1)C(=O)NCC(=O)N[C@@H](CO)C(=O)N[C@@H](CC(=O)O)C(=O)N1CCC[C@H]1C(=O)N[C@@H](CO)C(=O)O [Endo-4] (H-HPAWPQKSVWHGSDPS-OH; N-terminus and C-terminus assumed) | – | ~2 | inhibited BAE cell proliferation in a dose-dependent manner | inhibition of chick CAM angiogenesis (FIG. 8) ([1]; 10 day embryo, 1.8 μg/coverslip): Inhibition of chick CAM angiogenesis
13 | CC[C@H](C)[C@H](NC(=O)[C@H](Cc1ccc(O)cc1)NC(=O)CNC(=O)[C@H](Cc1c[nH]cn1)NC(=O)[C@H](C)NC(=O)[C@H](Cc1c[nH]cn1)NC(=O)[C@@H]1CCCN1C(=O)[C@@H](N)CO)C(=O)N1CCC[C@H]1C(=O)N[C@@H](CO)C(=O)O [Angio-2] (H-SPHAHGYIPS-OH; N-terminus and C-terminus assumed) | inhibited chick CAM angiogenesis | ~2000 | inhibited BAE cell proliferation in a dose-dependent manner | inhibition of chick CAM angiogenesis (FIG. 5) [8]: Inhibition of chick CAM angiogenesis
